Laboratory results taken from BindingDB's records for doi:10.1016/s0960-894x(00)00535-7 (Kyoto University, 2000).
pEC50: −log10 of the molar value. Where a SMILES comes first, the peptide text is derived from it. Bridges are numbered along the chain shown (N, C = ends). [ ]: non-standard residue; d: D form. 2Nal = N[C@@H](Cc1ccc2ccccc2c1)C(=O)O; Cit = NC(=O)NCCC[C@H](N)C(=O)O

Experiment: Inhibition of HIV-induced cytopathogenicity in MT-4 cell

SMILES	pEC50
C[C@H](NC(=O)[C@H](CCCN=C(N)N)NC(=O)[C@@H](N)CCCN=C(N)N)C(=O)N[C@H]1CSSC[C@@H](C(=O)N[C@@H](CCCN=C(N)N)C(=O)O)NC(=O)[C@H](CCCNC(N)=O)NC(=O)[C@H](CCCN=C(N)N)NC(=O)[C@H](Cc2ccc(O)cc2)NC(=O)[C@@H]2CCCN2C(=O)[C@@H](CCCCN)NC(=O)[C@H](CCCCN)NC(=O)[C@H](CCCN=C(N)N)NC(=O)[C@H](Cc2ccc(O)cc2)NC1=O	5.60
C[C@@H]1NC(=O)[C@@H]2CCCN2C(=O)[C@@H](CCCCN)NC(=O)[C@H](CCCCN)NC(=O)[C@H](CCCN=C(N)N)NC(=O)[C@H](Cc2ccc(O)cc2)NC(=O)[C@@H](NC(=O)[C@H](Cc2ccc3ccccc3c2)NC(=O)[C@H](CCCN=C(N)N)NC(=O)[C@@H](N)CCCN=C(N)N)CSSC[C@@H](C(=O)N[C@@H](CCCN=C(N)N)C(=O)O)NC(=O)[C@H](CCCNC(N)=O)NC(=O)[C@H](CCCN=C(N)N)NC1=O	7.77
NCCCC[C@@H]1NC(=O)[C@H](CCCN=C(N)N)NC(=O)[C@H](Cc2ccc(O)cc2)NC(=O)[C@@H](NC(=O)[C@H](Cc2ccc3ccccc3c2)NC(=O)[C@H](CCCNC(N)=O)NC(=O)[C@@H](N)CCCN=C(N)N)CSSC[C@@H](C(=O)N[C@@H](CCCN=C(N)N)C(=O)O)NC(=O)[C@H](CCCNC(N)=O)NC(=O)[C@H](CCCN=C(N)N)NC(=O)[C@H](Cc2ccc(O)cc2)NC(=O)[C@@H]2CCCN2C(=O)[C@@H](CCCCN)NC1=O	6.35
C[C@H](NC(=O)[C@@H]1CSSC[C@H](NC(=O)[C@H](Cc2ccc3ccccc3c2)NC(=O)[C@H](CCCN=C(N)N)NC(=O)[C@@H](N)CCCN=C(N)N)C(=O)N[C@@H](Cc2ccc(O)cc2)C(=O)N[C@@H](CCCN=C(N)N)C(=O)N[C@@H](CCCCN)C(=O)N[C@H](CCCCN)C(=O)N2CCC[C@H]2C(=O)N[C@@H](Cc2ccc(O)cc2)C(=O)N[C@@H](CCCN=C(N)N)C(=O)N[C@@H](CCCNC(N)=O)C(=O)N1)C(=O)O	6.40
C[C@H]1NC(=O)[C@H](CCCCN)NC(=O)[C@H](CCCN=C(N)N)NC(=O)[C@H](Cc2ccc(O)cc2)NC(=O)[C@@H](NC(=O)[C@H](Cc2ccc3ccccc3c2)NC(=O)[C@H](CCCN=C(N)N)NC(=O)[C@@H](N)CCCN=C(N)N)CSSC[C@@H](C(=O)N[C@@H](CCCN=C(N)N)C(=O)O)NC(=O)[C@H](CCCNC(N)=O)NC(=O)[C@H](CCCN=C(N)N)NC(=O)[C@H](Cc2ccc(O)cc2)NC(=O)[C@@H]2CCCN2C1=O	7.80
NCCCC[C@@H]1NC(=O)[C@H](CCCN=C(N)N)NC(=O)[C@H](Cc2ccc(O)cc2)NC(=O)[C@@H](NC(=O)[C@H](Cc2ccc3ccccc3c2)NC(=O)[C@H](CCCN=C(N)N)NC(=O)[C@@H](N)CCCNC(N)=O)CSSC[C@@H](C(=O)N[C@@H](CCCN=C(N)N)C(=O)O)NC(=O)[C@H](CCCNC(N)=O)NC(=O)[C@H](CCCN=C(N)N)NC(=O)[C@H](Cc2ccc(O)cc2)NC(=O)[C@@H]2CCCN2C(=O)[C@@H](CCCCN)NC1=O	7.82
NCCCC[C@@H]1NC(=O)[C@H](CCCN=C(N)N)NC(=O)[C@H](Cc2ccc(O)cc2)NC(=O)[C@@H](NC(=O)[C@H](Cc2c[nH]c3ccccc23)NC(=O)[C@H](CCCN=C(N)N)NC(=O)[C@@H](N)CCCN=C(N)N)CSSC[C@@H](C(=O)N[C@@H](CCCN=C(N)N)C(=O)O)NC(=O)[C@H](CCCNC(N)=O)NC(=O)[C@H](CCCN=C(N)N)NC(=O)[C@H](Cc2ccc(O)cc2)NC(=O)[C@@H]2CCCN2C(=O)[C@@H](CCCCN)NC1=O	8.08
NCCCC[C@@H]1NC(=O)[C@H](CCCNC(N)=O)NC(=O)[C@H](Cc2ccc(O)cc2)NC(=O)[C@@H](NC(=O)[C@H](Cc2ccc3ccccc3c2)NC(=O)[C@H](CCCN=C(N)N)NC(=O)[C@@H](N)CCCN=C(N)N)CSSC[C@@H](C(=O)N[C@@H](CCCN=C(N)N)C(=O)O)NC(=O)[C@H](CCCNC(N)=O)NC(=O)[C@H](CCCN=C(N)N)NC(=O)[C@H](Cc2ccc(O)cc2)NC(=O)[C@@H]2CCCN2C(=O)[C@@H](CCCCN)NC1=O	8.55
CC(N)C(=O)N[C@@H](CCCN=C(N)N)C(=O)N[C@@H](Cc1ccc2ccccc2c1)C(=O)N[C@H]1CSSC[C@@H](C(=O)N[C@@H](CCCN=C(N)N)C(=O)O)NC(=O)[C@H](CCCNC(N)=O)NC(=O)[C@H](CCCN=C(N)N)NC(=O)[C@H](Cc2ccc(O)cc2)NC(=O)[C@@H]2CCCN2C(=O)[C@@H](CCCCN)NC(=O)[C@H](CCCCN)NC(=O)[C@H](CCCN=C(N)N)NC(=O)[C@H](Cc2ccc(O)cc2)NC1=O (stereo partly specified)	7.25
C[C@@H]1NC(=O)[C@H](CCCN=C(N)N)NC(=O)[C@H](Cc2ccc(O)cc2)NC(=O)[C@@H]2CCCN2C(=O)[C@@H](CCCCN)NC(=O)[C@H](CCCCN)NC(=O)[C@H](CCCN=C(N)N)NC(=O)[C@H](Cc2ccc(O)cc2)NC(=O)[C@@H](NC(=O)[C@H](Cc2ccc3ccccc3c2)NC(=O)[C@H](CCCN=C(N)N)NC(=O)[C@@H](N)CCCN=C(N)N)CSSC[C@@H](C(=O)N[C@@H](CCCN=C(N)N)C(=O)O)NC1=O	7.80
NCCCC[C@H]1NC(=O)[C@H](CCCNC(N)=O)NC(=O)[C@H](CCCN=C(N)N)NC(=O)[C@H](Cc2ccc(O)cc2)NC(=O)[C@@H](NC(=O)[C@H](Cc2ccc3ccccc3c2)NC(=O)[C@H](CCCN=C(N)N)NC(=O)[C@@H](N)CCCN=C(N)N)CSSC[C@@H](C(=O)N[C@@H](CCCN=C(N)N)C(=O)O)NC(=O)[C@H](CCCNC(N)=O)NC(=O)[C@H](CCCN=C(N)N)NC(=O)[C@H](Cc2ccc(O)cc2)NC(=O)[C@@H]2CCCN2C1=O	7.80
C[C@@H]1NC(=O)[C@H](CCCN=C(N)N)NC(=O)[C@H](Cc2ccc(O)cc2)NC(=O)[C@@H](NC(=O)[C@H](Cc2ccc3ccccc3c2)NC(=O)[C@H](CCCN=C(N)N)NC(=O)[C@@H](N)CCCN=C(N)N)CSSC[C@@H](C(=O)N[C@@H](CCCN=C(N)N)C(=O)O)NC(=O)[C@H](CCCNC(N)=O)NC(=O)[C@H](CCCN=C(N)N)NC(=O)[C@H](Cc2ccc(O)cc2)NC(=O)[C@@H]2CCCN2C(=O)[C@@H](CCCCN)NC1=O	7.33
C[C@@H]1NC(=O)[C@@H](CCCCN)NC(=O)[C@H](CCCCN)NC(=O)[C@H](CCCN=C(N)N)NC(=O)[C@H](Cc2ccc(O)cc2)NC(=O)[C@@H](NC(=O)[C@H](Cc2ccc3ccccc3c2)NC(=O)[C@H](CCCN=C(N)N)NC(=O)[C@@H](N)CCCN=C(N)N)CSSC[C@@H](C(=O)N[C@@H](CCCN=C(N)N)C(=O)O)NC(=O)[C@H](CCCNC(N)=O)NC(=O)[C@H](CCCN=C(N)N)NC(=O)[C@H](Cc2ccc(O)cc2)NC1=O (H-RR[2Nal]CYRK[dK]AYR[Cit]CR-OH; disulfide 4-13)	7.77
NCCCC[C@@H]1NC(=O)[C@H](CCCN=C(N)N)NC(=O)[C@H](Cc2ccc(O)cc2)NC(=O)[C@@H](NC(=O)[C@H](Cc2ccc3ccccc3c2)NC(=O)[C@H](CCCN=C(N)N)NC(=O)[C@@H](N)CCCN=C(N)N)CSSC[C@@H](C(=O)N[C@@H](CCCN=C(N)N)C(=O)O)NC(=O)[C@H](CCCNC(N)=O)NC(=O)[C@H](CCCN=C(N)N)NC(=O)[C@H](Cc2ccc(O)cc2)NC(=O)[C@@H]2CCCN2C(=O)[C@@H](CCCCN)NC1=O (H-RR[2Nal]CYRK[dK]PYR[Cit]CR-OH; disulfide 4-13)	8.48
C[C@H](NC(=O)[C@@H](N)CCCN=C(N)N)C(=O)N[C@@H](Cc1ccc2ccccc2c1)C(=O)N[C@H]1CSSC[C@@H](C(=O)N[C@@H](CCCN=C(N)N)C(=O)O)NC(=O)[C@H](CCCNC(N)=O)NC(=O)[C@H](CCCN=C(N)N)NC(=O)[C@H](Cc2ccc(O)cc2)NC(=O)[C@@H]2CCCN2C(=O)[C@@H](CCCCN)NC(=O)[C@H](CCCCN)NC(=O)[C@H](CCCN=C(N)N)NC(=O)[C@H](Cc2ccc(O)cc2)NC1=O [TC-14001]	5.89
C[C@@H]1NC(=O)[C@H](Cc2ccc(O)cc2)NC(=O)[C@@H](NC(=O)[C@H](Cc2ccc3ccccc3c2)NC(=O)[C@H](CCCN=C(N)N)NC(=O)[C@@H](N)CCCN=C(N)N)CSSC[C@@H](C(=O)N[C@@H](CCCN=C(N)N)C(=O)O)NC(=O)[C@H](CCCNC(N)=O)NC(=O)[C@H](CCCN=C(N)N)NC(=O)[C@H](Cc2ccc(O)cc2)NC(=O)[C@@H]2CCCN2C(=O)[C@@H](CCCCN)NC(=O)[C@H](CCCCN)NC1=O [TC-14002]	8.03
NCCCC[C@@H]1NC(=O)[C@H](CCCN=C(N)N)NC(=O)[C@H](Cc2ccc(O)cc2)NC(=O)[C@@H](NC(=O)[C@H](Cc2ccc3ccccc3c2)NC(=O)[C@H](CCCN=C(N)N)NC(=O)[C@@H](N)CCCN=C(N)N)CSSC[C@@H](C(=O)N[C@@H](CCCN=C(N)N)C(=O)O)NC(=O)[C@H](CCCNC(N)=O)NC(=O)[C@H](CCCNC(N)=O)NC(=O)[C@H](Cc2ccc(O)cc2)NC(=O)[C@@H]2CCCN2C(=O)[C@@H](CCCCN)NC1=O [TC-14003]	7.82
NCCCC[C@@H]1NC(=O)[C@H](CCCN=C(N)N)NC(=O)[C@H](Cc2ccc(O)cc2)NC(=O)[C@@H](NC(=O)[C@H](Cc2ccc3ccccc3c2)NC(=O)[C@H](CCCN=C(N)N)NC(=O)[C@@H](N)CCCN=C(N)N)CSSC[C@@H](C(=O)N[C@@H](CCCN=C(N)N)C(=O)O)NC(=O)[C@H](CCCNC(N)=O)NC(=O)[C@H](CCCN=C(N)N)NC(=O)[C@H](Cc2ccc(O)cc2)NC(=O)[C@@H]2CCCN2C(=O)[C@@H](CCCNC(N)=O)NC1=O [TC-14004]	8.40
C[C@@H]1NC(=O)[C@@H](NC(=O)[C@H](Cc2ccc3ccccc3c2)NC(=O)[C@H](CCCN=C(N)N)NC(=O)[C@@H](N)CCCN=C(N)N)CSSC[C@@H](C(=O)N[C@@H](CCCN=C(N)N)C(=O)O)NC(=O)[C@H](CCCNC(N)=O)NC(=O)[C@H](CCCN=C(N)N)NC(=O)[C@H](Cc2ccc(O)cc2)NC(=O)[C@@H]2CCCN2C(=O)[C@@H](CCCCN)NC(=O)[C@H](CCCCN)NC(=O)[C@H](CCCN=C(N)N)NC1=O [TC-14005]	6.44
NCCCC[C@@H]1NC(=O)[C@H](CCCN=C(N)N)NC(=O)[C@H](Cc2ccc(O)cc2)NC(=O)[C@@H](NC(=O)[C@H](Cc2ccc3ccccc3c2)NC(=O)[C@H](CCCN=C(N)N)NC(=O)[C@@H](N)CCCN=C(N)N)CSSC[C@@H](C(=O)N[C@@H](CCCNC(N)=O)C(=O)O)NC(=O)[C@H](CCCNC(N)=O)NC(=O)[C@H](CCCN=C(N)N)NC(=O)[C@H](Cc2ccc(O)cc2)NC(=O)[C@@H]2CCCN2C(=O)[C@@H](CCCCN)NC1=O [TC-14006]	6.06
C[C@@H]1NC(=O)[C@H](Cc2ccc(O)cc2)NC(=O)[C@@H]2CCCN2C(=O)[C@@H](CCCCN)NC(=O)[C@H](CCCCN)NC(=O)[C@H](CCCN=C(N)N)NC(=O)[C@H](Cc2ccc(O)cc2)NC(=O)[C@@H](NC(=O)[C@H](Cc2ccc3ccccc3c2)NC(=O)[C@H](CCCN=C(N)N)NC(=O)[C@@H](N)CCCN=C(N)N)CSSC[C@@H](C(=O)N[C@@H](CCCN=C(N)N)C(=O)O)NC(=O)[C@H](CCCNC(N)=O)NC1=O [TC-14007]	7.74
